Values of other authors, collected in article PMC6453670 (International Journal for Parasitology: Drugs and Drug …, 2019).

Tests used:
[1] = tested on: Toxoplasma; details: longer treatment duration; ref Winzer et al., 2015
[2] = tested on: Neospora; details: longer treatment duration; ref Ojo et al., 2014; Winzer et al., 2015

In the case of `CCOc1ccc2cc(-c3nn(CC4CCN(C)CC4)c4ncnc(N)c34)ccc2c1` [BKI 1294], the “Dose at which morphological alterations were seen in vitro” value [1] is listed as 2.5 μM and the “Dose at which morphological alterations were seen in vitro” value [2] is listed as 2.5 μM.
